Holding throughout (type): biochemical
Experiment [1] has as its target rat sucrase (partially purified alpha-glucosidase from intestinal rat powder) (Rattus norvegicus, UniProt P23739). Nature of the experiment: Intestinal alpha-glucosidase assay, sucrose substrate (Glucose GO Kit). The procedure, abridged: (§1)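 Enzyme from intestinal rat powder, partially purified, is exposed to compound for 60 min at 37 °C. Disaccharide substrate (maltose or sucrose respectively) then reacts 30 min at 37 °C. Heat-stopped samples are assayed for glucose, and percent inhibition versus concentration gives IC50 via 4-PL.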

Experiment [2] concerns the target T1, recombinant human GBA (beta-glucocerebrosidase) (Homo sapiens, UniProt P04062).
T1 sequence (P04062 40-536): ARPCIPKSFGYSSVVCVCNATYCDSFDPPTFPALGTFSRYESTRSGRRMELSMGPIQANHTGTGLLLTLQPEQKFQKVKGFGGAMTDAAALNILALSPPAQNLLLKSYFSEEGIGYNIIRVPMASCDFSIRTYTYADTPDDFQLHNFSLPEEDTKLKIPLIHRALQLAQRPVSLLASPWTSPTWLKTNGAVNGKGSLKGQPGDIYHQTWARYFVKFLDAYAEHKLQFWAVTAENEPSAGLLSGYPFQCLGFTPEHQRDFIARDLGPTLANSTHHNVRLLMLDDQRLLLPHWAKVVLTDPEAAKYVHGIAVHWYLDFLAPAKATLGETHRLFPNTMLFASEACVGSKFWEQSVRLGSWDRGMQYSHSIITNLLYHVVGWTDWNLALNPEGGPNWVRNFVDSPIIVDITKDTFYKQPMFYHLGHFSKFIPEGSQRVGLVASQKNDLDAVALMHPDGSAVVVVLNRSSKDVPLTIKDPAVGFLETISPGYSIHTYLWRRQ
Put plainly: Beta-glucocerebrosidase (GBA, glucosylceramidase) assay (4-methylumbelliferyl-beta-D-pyranoside substrate, fluorescence). The procedure, abridged:
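Recombinant human GBA preincubated with compound dilutions 60 min at 37 °C, then 4-methylumbelliferyl-beta-D-pyranoside added for 60 min at 37 °C. Stopped at pH 10 (glycine/NaOH); fluorescence ex 365/em 440 nm. IC50 from 4-PL fit of inhibition relative to untreated enzyme.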

Experiment [3] concerns the target rat maltase (partially purified alpha-glucosidase from intestinal rat powder). Put plainly: Intestinal alpha-glucosidase assay, maltose substrate (Glucose GO Kit). The procedure, abridged:
as §1

For experiment [4], the target named is T2, recombinant alpha-glucosidase II (murine full-length glucosidase II, alpha and beta subunits, Glu 2) (Mus musculus, UniProt Q8BHN3).
T2 construct: made in house; host or cells: HEK-293T cells transduced with BacMam viruses (75% alpha, 25% beta); protein harvested from culture supernatant
T2 sequence (O08795 15-521): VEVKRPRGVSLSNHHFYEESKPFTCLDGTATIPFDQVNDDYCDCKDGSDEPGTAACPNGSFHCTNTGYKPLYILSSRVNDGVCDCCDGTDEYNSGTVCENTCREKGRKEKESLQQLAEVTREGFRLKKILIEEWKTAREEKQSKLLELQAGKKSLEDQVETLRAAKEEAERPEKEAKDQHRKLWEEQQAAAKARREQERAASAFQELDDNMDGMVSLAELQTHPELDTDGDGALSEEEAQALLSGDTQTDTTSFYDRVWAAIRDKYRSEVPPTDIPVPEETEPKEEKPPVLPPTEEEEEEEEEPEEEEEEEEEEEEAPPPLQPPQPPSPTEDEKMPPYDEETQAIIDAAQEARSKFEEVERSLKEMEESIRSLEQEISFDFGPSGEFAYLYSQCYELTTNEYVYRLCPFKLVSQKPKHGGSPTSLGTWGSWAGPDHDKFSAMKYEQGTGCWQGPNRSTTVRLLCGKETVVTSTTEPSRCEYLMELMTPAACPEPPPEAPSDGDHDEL
T2 sequence (Q8BHN3 33-944): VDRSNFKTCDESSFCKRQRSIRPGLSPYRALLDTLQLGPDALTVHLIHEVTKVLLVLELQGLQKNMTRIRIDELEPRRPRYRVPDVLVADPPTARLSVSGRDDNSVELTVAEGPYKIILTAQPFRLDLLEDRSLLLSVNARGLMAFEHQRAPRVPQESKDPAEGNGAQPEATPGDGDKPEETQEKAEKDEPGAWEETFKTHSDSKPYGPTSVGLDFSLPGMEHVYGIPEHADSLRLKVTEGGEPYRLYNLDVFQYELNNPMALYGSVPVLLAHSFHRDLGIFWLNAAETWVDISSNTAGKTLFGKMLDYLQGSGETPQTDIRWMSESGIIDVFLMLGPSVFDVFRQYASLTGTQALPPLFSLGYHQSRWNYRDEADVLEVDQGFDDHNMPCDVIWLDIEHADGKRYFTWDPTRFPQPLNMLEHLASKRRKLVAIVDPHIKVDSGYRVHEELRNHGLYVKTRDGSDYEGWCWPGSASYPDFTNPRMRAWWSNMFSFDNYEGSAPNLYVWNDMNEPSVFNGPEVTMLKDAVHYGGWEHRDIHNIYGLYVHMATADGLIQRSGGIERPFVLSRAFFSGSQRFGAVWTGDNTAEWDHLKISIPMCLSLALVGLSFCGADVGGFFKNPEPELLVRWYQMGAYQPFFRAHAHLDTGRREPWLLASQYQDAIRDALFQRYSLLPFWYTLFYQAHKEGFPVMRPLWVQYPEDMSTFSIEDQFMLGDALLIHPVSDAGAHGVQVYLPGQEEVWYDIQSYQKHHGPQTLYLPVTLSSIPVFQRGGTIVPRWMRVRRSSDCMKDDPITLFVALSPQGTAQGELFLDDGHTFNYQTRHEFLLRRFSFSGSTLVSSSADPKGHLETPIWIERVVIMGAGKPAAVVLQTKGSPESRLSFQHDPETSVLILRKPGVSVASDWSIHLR
Put plainly: Alpha-glucosidase II assay (4-methylumbelliferyl-alpha-D-pyranoside substrate, fluorescence). The settings on record: Glucosidase 2; read-out: Glu2 IC50.

Experiment [5] deals with recombinant human GAA (acid alpha-glucosidase) (Homo sapiens, UniProt P10253). Nature of the experiment: Acid alpha-glucosidase (GAA) assay (4-methylumbelliferyl-alpha-D-pyranoside substrate, fluorescence). The gist of the method: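 Recombinant human enzyme preincubated 60 min at 37 °C with compound dilutions, then 4-methylumbelliferyl-alpha-D-pyranoside substrate added for 20 min at 37 °C. Stopped with glycine/NaOH pH 10; methylumbelliferone fluorescence (ex 365, em 440 nm) versus untreated enzyme; IC50 by 4-PL fit.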

Some results are limits rather than exact numbers.

rat sucrase (partially purified alpha-glucosidase from intestinal rat powder), sequence (P23739 whole entry): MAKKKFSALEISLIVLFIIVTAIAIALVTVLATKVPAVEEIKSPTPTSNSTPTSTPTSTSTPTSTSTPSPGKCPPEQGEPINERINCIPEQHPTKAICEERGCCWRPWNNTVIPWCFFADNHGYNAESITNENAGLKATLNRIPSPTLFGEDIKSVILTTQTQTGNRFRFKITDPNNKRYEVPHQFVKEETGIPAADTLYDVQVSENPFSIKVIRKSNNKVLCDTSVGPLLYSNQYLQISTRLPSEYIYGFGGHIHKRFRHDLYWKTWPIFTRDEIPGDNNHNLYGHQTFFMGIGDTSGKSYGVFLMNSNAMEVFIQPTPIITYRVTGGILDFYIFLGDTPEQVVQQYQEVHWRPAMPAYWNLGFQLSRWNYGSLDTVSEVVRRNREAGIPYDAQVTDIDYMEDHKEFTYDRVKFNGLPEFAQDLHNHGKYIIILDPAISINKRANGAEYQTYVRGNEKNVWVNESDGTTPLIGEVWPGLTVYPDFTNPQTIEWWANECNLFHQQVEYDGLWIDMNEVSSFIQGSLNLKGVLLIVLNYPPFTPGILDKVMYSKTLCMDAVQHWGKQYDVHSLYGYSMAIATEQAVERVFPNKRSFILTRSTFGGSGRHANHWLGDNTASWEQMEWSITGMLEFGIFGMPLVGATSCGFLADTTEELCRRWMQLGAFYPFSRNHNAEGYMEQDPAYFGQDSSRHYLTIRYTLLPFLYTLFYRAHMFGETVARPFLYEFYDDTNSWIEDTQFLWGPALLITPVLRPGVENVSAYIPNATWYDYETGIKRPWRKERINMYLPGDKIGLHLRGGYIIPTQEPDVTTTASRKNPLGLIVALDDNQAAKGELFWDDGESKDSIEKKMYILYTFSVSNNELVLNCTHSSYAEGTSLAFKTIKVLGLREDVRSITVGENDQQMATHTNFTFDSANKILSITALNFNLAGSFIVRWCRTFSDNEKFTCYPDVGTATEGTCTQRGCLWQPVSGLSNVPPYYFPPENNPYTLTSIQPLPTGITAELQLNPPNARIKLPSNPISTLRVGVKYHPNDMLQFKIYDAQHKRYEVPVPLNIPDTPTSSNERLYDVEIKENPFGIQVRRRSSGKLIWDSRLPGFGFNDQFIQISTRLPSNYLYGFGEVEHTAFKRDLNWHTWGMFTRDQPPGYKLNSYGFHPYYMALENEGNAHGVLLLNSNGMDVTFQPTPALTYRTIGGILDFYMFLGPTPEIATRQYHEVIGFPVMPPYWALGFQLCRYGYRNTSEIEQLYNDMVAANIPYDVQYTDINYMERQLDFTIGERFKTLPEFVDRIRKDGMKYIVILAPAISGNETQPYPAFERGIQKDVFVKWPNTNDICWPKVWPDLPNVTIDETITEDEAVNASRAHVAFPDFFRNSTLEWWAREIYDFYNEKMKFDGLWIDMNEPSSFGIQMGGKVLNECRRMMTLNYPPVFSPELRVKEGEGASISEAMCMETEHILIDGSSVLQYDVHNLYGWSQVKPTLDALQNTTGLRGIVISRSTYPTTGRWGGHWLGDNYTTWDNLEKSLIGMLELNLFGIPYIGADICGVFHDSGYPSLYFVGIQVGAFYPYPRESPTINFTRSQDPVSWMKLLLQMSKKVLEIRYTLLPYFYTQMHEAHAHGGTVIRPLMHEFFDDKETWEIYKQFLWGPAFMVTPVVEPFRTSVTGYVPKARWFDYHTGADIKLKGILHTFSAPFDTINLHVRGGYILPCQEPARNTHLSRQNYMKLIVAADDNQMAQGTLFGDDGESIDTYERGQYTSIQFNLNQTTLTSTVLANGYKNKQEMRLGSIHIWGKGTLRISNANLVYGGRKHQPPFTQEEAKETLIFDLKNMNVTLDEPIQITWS

In general, IC50 refers to the concentration at which inhibition is half-maximal. Regarding `OC[C@@H]1[C@@H](O)[C@H](O)[C@@H](O)CN1CCc1cn(CCNc2ccccc2)c2ccccc12` [Compound 1076, (2R,3R,4R,5S)-2-(hydroxymethyl)-1-(2-{1-[2-(phenylamino)ethyl]-1H-indol-3-yl}ethyl)piperidine-3,4,5-triol], the IC50 in experiment [1] turned out to be 854 nM; in experiment [2] it was 7810 nM; in experiment [3], 250 nM; in experiment [4], 66 nM; in experiment [5], 4260 nM.

Regarding `CC(C)c1cc(CCNc2ccc(N=[N+]=[N-])cc2[N+](=O)[O-])cc(CCN2C[C@H](O)[C@@H](O)[C@H](O)[C@H]2CO)c1` [Compound 1077, (2R,3R,4R,5S)-1-[2-(3-{2-[(4-azido-2-nitrophenyl)amino]ethyl}-5-(propan-2-yl)phenyl)ethyl]-2-(hydroxymethyl)piperidine-3,4,5-triol], the IC50 came to 8140 nM in experiment [1]; 379 nM in experiment [2]; 6650 nM in experiment [3]; 203 nM in experiment [4]; 10000 nM in experiment [5].

Consider `O=[N+]([O-])c1cc(-c2ncc[nH]2)ccc1NCCc1ccc(CCN2C[C@H](O)[C@@H](O)[C@H](O)[C@H]2CO)cc1` [Compound 1078, (2R,3R,4R,5S)-2-(hydroxymethyl)-1-{2-[4-(2-{[4-(1H-imidazol-2-yl)-2-nitrophenyl]amino}ethyl)phenyl]ethyl}piperidine-3,4,5-triol], for which the IC50 in experiment [1] was 506 nM; in experiment [2], 6970 nM; in experiment [3] it was 28 nM; in experiment [4] it was 95 nM; in experiment [5], 343 nM.

`OC[C@@H]1[C@@H](O)[C@H](O)[C@@H](O)CN1Cc1cccc(CNc2ccc(N3CCOCC3)cc2)c1` [Compound 1081, (2R,3R,4R,5S)-2-(hydroxymethyl)-1-{[3-({[4-(morpholin-4-yl)phenyl]amino}methyl)phenyl]methyl}piperidine-3,4,5-triol]: the IC50 in experiment [1] was 161 nM; in experiment [2], more than 100000 nM; in experiment [3], 110 nM; in experiment [4], 70400 nM; in experiment [5] it was 1270 nM.

For the compound `OC[C@@H]1[C@@H](O)[C@H](O)[C@@H](O)CN1Cc1cccc(CNc2ccc(-c3ccc[nH]3)cc2)c1` [Compound 1082, (2R,3R,4R,5S)-2-(hydroxymethyl)-1-{[3-({[4-(1H-pyrrol-2-yl)phenyl]amino}methyl)phenyl]methyl}piperidine-3,4,5-triol], the IC50 in experiment [1] came to 25 nM; in experiment [2], 13800 nM; in experiment [3], 14 nM; in experiment [4] it was 5630 nM; in experiment [5] it was 872 nM.

As for `OC[C@@H]1[C@@H](O)[C@H](O)[C@@H](O)CN1Cc1cccc(CNc2ccc(-c3cccnn3)cc2)c1` [Compound 1083, (2R,3R,4R,5S)-2-(hydroxymethyl)-1-{[3-({[4-(pyridazin-3-yl)phenyl]amino}methyl)phenyl]methyl}piperidine-3,4,5-triol], the IC50 is 28 nM in experiment [1]; more than 100000 nM in experiment [2]; 54 nM in experiment [3]; 9990 nM in experiment [4]; 1950 nM in experiment [5].

In the case of `OC[C@@H]1[C@@H](O)[C@H](O)[C@@H](O)CN1Cc1cccc(CNc2ccc(-c3ncccn3)cc2)c1` [Compound 1084, (2R,3R,4R,5S)-2-(hydroxymethyl)-1-{[3-({[4-(pyrimidin-2-yl)phenyl]amino}methyl)phenyl]methyl}piperidine-3,4,5-triol], the IC50 in experiment [1] is 44 nM; in experiment [2], more than 100000 nM; in experiment [3], 95 nM; in experiment [4] it was 26600 nM; in experiment [5] it was 2350 nM.

As to `O=[N+]([O-])c1cc(CN2CCCO2)ccc1NCc1cccc(CN2C[C@H](O)[C@@H](O)[C@H](O)[C@H]2CO)c1` [Compound 1086], the IC50 in experiment [1] was 76 nM; in experiment [2], more than 100000 nM; in experiment [3], 124 nM; in experiment [4], 44200 nM; in experiment [5], 976 nM.

The record behind these values is US20250197372A1 (priority 2020, published 2025).
